In patent US20090042849A1, “Phosphorylation of 5-lipoxygenase at ser523 and uses thereof” (priority 2006, published 2009):

Experiments:
Assay type in all cases: cell-based
[1] = tested on: cPLA2; test: immunofluorescence of cPLA2 in adult rat cardiac myocytes; settings: PIO 10 μM, ATV 10 μM, H-89 0.1 μM, 12 hours
Protocol: (§1) Cardiac myocytes were isolated from adult Sprague-Dawley rats (250-300 g, male). Animals were heparinized (1,000-2,000 units i.p.) 5 min before being anesthetized with ketamine (100 mg/kg) and xylazine (10 mg/kg), and the hearts were removed and placed in ice-cold heart media solution (in mmol/l: 112 NaCl, 5.4 KCl, 1 MgCl2, 9 NaH2PO4, and 11.1 D-glucose; supplemented with 10 HEPES, 30 taurine, 2 DL-carnitine, and 2 creatine, pH. 7.4). The hearts were perfused retrogradely in a Langendorff apparatus with Ca^2+-free heart media for 5 min at 5 ml/min at 37° C., followed by perfusion with Ca^2+-free heart media containing collagenase II, 210 U/mg (Worthington, Lakewood, N.J.) for 20 min. After perfusion, both ventricles were removed from the heart and minced in collagenase II-containing heart media for 10-15 min. The cell solution was then washed several times to remove collagenase II and reexposed to 1.2 mM Ca2^+ over 25 min to produce Ca2^+-tolerant cardiac myocytes. […]
Immunofluorescent labeling was performed on paraffin sections (5-μm) of 4% formaldehyde-fixed rat cardiac tissue, as described previously (22). […] All the slides were viewed under an Olympus BX51 microscope [images recorded by a DP70 Digital camera (Olympus Optical Co., Ltd., Tokyo, Japan)] or confocal microscope (Bio-Rad 2100 (Hercules, Calif.).

[2] = tested on: 5LO (P-5LO); test: immunoblotting of 5LO and P-5LO in adult rat cardiac myocyte cultures; settings: H-89 0.1 μM with PIO+ATV
Protocol: as §1, with “min.” for “min. After perfusion, both ventricles were removed from the heart and minced in collagenase II-containing heart media for 10-15 min. The cell solution was then washed several times to remove collagenase II and reexposed to 1.2 mM Ca2^+ over 25 min to produce Ca2^+-tolerant cardiac myocytes.”
The hearts were rapidly explanted, rinsed in cold PBS (pH 7.4), containing 0.16 mg/ml heparin to remove red blood cells and clots, frozen in liquid nitrogen and stored at −70° C. […] The supernatant was collected and the total protein concentration was determined using the Lowry protein assay. […] The protein samples with loading buffer were run in 4-20% Tri-HCl Ready Gel at a 100V for 2 h until the desired molecular weight bands were separated. […] The protein signals were quantified by an image-scanning-densitometer and the strength of each protein signal was normalized to the corresponding b-actin stain signal. Data are expressed as a ratio between the protein and the corresponding b-actin signal density.

[3] = tested on: LTB4; test: LTB4 levels in adult rat cardiac myocytes (ELISA); settings: PIO 10 μM, ATV 10 μM, H-89 0.1 μM, 12 hours
Protocol: as §1, with “myocytes. Myocytes were then plated in 4% FBS on laminin (2 μg/cm^2)-coated plates for 1 h and incubated at 37° C. in 5% CO2 for 12-24 h before experiments (21). Cells were incubated with 1) vehicle (0.07% ethanol); 2) PIO (10 μM)+ATV (10 μM); 3) H-89 (0.1 μM); or 4) PIO+ATV+H-89 for 12 hours. The supernatants were collected directly for LTB4 analyses by ELISA and the cells were harvested for immunoblotting.” for “myocytes.”

**Q.** With `O=S(=O)(NCCNC/C=C/c1ccc(Br)cc1)c1cccc2cnccc12` [H-89] as the molecule, how does the cPLA2 expression [1] read?
**A.** no effect

**Q.** What about the “effect on the 5LO phosphorylation by PIO+ATV” value [2] of the same molecule?
**A.** almost completely blocked

**Q.** And the LTB4 levels [3]?
**A.** no significant effect
